Source: article PMC4959829 (Biochemical Pharmacology, 2016)
Like-named read-outs stand apart in the source and are kept apart here.

Experiments:
hERG (WT) [1] = settings: cited from earlier work
hERG (WT) [2] = settings: cited from earlier work; remark: listed apart in the source
Y652A hERG = Y652A hERG (Homo sapiens, UniProt Q12809, Y652A); settings: cited from earlier work
F656A hERG = F656A hERG (Homo sapiens, UniProt Q12809, F656A); settings: cited from earlier work
hERG (WT) [3] = experiment: Literature IhERG block, WT hERG in Xenopus oocytes; assay type: cell-based; settings: human, Xenopus oocytes expressing WT hERG; Oocyte, room temperature; estimated from single dose data with Hill equation, h = 1; read-out: WT IC50 (estimated)
[4] = read-out: WT IC50, Oocyte, room temperature

F656A hERG, sequence (Q12809 whole entry F656A): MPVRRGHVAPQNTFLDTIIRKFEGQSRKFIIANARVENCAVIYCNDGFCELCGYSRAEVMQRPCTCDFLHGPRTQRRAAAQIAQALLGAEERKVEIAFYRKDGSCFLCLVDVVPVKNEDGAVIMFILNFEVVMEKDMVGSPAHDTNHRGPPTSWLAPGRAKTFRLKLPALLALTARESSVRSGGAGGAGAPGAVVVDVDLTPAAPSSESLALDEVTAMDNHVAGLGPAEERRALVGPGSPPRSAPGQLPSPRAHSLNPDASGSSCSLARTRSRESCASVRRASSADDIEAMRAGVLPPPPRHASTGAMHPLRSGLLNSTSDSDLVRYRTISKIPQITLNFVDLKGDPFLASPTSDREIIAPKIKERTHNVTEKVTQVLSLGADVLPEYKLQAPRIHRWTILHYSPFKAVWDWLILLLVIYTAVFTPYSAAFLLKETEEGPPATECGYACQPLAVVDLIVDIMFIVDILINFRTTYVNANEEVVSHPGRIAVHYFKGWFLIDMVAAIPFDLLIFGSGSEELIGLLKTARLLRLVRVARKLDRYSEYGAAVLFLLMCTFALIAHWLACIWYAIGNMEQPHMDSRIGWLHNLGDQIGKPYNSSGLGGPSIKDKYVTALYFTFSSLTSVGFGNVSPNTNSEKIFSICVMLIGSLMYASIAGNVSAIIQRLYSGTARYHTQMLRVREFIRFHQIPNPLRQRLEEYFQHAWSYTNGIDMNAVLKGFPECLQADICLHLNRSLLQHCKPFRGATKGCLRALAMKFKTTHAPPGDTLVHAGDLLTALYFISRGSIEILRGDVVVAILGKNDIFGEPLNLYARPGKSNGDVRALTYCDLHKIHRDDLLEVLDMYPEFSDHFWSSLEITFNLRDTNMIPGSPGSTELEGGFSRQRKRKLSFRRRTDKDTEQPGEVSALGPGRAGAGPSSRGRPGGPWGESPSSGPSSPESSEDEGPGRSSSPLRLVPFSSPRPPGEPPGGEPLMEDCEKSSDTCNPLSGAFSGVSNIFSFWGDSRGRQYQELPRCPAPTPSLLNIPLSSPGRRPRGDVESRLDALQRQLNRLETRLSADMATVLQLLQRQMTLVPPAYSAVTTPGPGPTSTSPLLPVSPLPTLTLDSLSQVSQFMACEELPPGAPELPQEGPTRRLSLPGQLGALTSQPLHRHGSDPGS
Y652A hERG, sequence (Q12809 whole entry Y652A): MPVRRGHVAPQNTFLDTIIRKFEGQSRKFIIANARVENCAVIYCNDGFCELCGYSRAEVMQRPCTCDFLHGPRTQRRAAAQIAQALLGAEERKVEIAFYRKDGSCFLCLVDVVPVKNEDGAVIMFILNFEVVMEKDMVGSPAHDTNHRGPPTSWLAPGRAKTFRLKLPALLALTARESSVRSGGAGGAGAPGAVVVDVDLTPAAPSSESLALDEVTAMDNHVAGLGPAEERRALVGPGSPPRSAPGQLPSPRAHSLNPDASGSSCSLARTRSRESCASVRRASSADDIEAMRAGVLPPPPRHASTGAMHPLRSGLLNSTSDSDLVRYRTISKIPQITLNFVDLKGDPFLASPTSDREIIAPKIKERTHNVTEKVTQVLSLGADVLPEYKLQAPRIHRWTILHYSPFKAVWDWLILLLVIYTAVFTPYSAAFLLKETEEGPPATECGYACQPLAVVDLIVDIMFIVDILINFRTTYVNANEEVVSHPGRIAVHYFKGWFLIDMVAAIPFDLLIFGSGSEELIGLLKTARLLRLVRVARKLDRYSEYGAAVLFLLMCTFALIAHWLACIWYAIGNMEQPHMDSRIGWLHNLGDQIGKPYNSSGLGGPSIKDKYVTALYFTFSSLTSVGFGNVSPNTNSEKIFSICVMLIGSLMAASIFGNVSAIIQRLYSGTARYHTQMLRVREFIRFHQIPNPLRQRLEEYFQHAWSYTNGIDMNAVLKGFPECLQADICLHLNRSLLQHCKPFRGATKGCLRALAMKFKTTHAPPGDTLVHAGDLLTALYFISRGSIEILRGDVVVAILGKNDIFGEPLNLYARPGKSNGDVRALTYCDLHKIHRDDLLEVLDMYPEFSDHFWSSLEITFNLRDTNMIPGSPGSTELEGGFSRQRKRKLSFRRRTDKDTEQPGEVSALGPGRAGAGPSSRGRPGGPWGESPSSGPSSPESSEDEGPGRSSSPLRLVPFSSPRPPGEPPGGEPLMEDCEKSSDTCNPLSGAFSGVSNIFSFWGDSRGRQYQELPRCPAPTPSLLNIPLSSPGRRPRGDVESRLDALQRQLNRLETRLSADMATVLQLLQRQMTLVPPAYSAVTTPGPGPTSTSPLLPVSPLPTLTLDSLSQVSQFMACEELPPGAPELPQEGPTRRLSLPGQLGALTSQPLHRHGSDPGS

For O=C1Cc2cc(CCN3CCN(c4nsc5ccccc45)CC3)c(Cl)cc2N1 [Ziprasidone], the IC50 (hERG (WT) [1]; HEK293, 37 °C, read-out: WT IC50) is given as 120 nM, the IC50 (hERG (WT) [2]) is given as 2800 nM and the “IC50 fold increase (mutant IC50/WT IC50), Y652A” value (Y652A hERG) is given as 140 fold. For the same molecule, the “IC50 fold increase (mutant IC50/WT IC50), F656A” value (F656A hERG) was 357 fold.
In the case of CCCCCCC[N+](CC)(CC)CCCCc1ccc(Cl)cc1 [Clofilium], the IC50 (hERG (WT) [2]; [4]) is given as 30 nM.
For CCCCc1oc2ccccc2c1C(=O)c1cc(I)c(OCCNCC)c(I)c1 [desethyl-amiodarone], the IC50 (hERG (WT) [1]; metabolite DEA, read-out: IhERG IC50) is listed as about 160 nM.
